Article PMC4621994 (British Journal of Pharmacology, 2015)
Values joined by “and” are separate entries in the source; they are usually repeats but may differ in a detail not shown here. Identical values can stand only once. “Also recorded” adds a separate entry of the source. Like-named read-outs stand apart in the source and are kept apart here.

Columns and labels:
[1] = test system: aEPSCs in hippocampal neurons; assay: Autaptic excitatory postsynaptic currents (aEPSCs) in hippocampal microcultures; type: cell-based, rat
[2] = test system: native GABAA receptors in hippocampal neurons; assay: GABA-evoked currents in cultured hippocampal neurons, perforated patch; type: cell-based, rat; conditions: for GABA Emax (normalized) in the presence of flupirtine (30 μM) / GABA Emax (normalized), solvent: Hippocampus neurons
α1β2 GABAA receptor = target: T1, α1β2 GABAA receptor (Rattus norvegicus, UniProt P62813+P63138); assay: GABA-evoked currents through recombinant receptors in tsA 201 cells; type: cell-based; conditions: 30 μM flupirtine, normalized to 30 μM GABA in solvent
T1 construct: expressed in transfected cells; host or cells: tsA 201 cells
T1 sequence (P62813 28-455): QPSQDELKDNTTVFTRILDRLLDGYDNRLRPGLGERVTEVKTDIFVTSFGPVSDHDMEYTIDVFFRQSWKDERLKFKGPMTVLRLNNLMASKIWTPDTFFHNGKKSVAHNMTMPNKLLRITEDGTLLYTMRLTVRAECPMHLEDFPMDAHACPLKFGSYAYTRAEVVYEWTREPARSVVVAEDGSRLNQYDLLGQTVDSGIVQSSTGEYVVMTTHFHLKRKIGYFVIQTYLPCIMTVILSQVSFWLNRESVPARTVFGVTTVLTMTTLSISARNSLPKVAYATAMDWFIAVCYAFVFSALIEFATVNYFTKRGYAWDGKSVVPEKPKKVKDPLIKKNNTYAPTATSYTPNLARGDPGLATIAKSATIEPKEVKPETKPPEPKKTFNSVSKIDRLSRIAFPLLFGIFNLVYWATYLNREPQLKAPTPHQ
T1 sequence (P63138 25-474 limits assumed): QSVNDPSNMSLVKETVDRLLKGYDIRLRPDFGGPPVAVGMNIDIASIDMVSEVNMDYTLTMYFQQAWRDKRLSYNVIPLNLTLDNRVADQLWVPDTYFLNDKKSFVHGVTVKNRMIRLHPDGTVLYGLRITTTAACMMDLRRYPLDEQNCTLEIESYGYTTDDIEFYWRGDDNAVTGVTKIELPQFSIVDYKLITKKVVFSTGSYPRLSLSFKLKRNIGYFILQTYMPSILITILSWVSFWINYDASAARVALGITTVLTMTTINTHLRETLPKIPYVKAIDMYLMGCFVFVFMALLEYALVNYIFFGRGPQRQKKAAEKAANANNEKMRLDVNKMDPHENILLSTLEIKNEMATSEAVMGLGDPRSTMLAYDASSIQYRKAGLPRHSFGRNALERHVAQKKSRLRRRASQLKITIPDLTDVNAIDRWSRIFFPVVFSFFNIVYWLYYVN

α1β2γ2S GABAA receptor = target: T2, α1β2γ2S GABAA receptor (Rattus norvegicus, UniProt P18508+P62813+P63138); assay: as above; type: cell-based
T2 construct: expressed in transfected cells; host or cells: tsA 201 cells
T2 sequence (P62813 28-455): as the sequence (P62813 28-455) above
T2 sequence (P63138 25-474 limits assumed): as the sequence (P63138 25-474 limits assumed) above
T2 sequence (P18508 39-466): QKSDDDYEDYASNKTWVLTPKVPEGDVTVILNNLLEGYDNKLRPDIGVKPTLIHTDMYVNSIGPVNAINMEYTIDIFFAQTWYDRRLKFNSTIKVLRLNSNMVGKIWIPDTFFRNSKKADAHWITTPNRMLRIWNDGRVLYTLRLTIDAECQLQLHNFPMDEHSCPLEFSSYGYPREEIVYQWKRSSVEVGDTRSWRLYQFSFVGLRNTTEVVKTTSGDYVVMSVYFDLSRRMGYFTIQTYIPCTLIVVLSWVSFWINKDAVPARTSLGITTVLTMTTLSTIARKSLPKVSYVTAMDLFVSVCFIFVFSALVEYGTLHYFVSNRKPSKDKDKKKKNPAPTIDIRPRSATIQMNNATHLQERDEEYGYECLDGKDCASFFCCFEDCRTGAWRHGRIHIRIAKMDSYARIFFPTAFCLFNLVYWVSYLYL

α1β2δ GABAA receptor = target: T3, α1β2δ GABAA receptor (Rattus norvegicus, UniProt P18506+P62813+P63138); assay: as above; type: cell-based
T3 construct: expressed in transfected cells; host or cells: tsA 201 cells
T3 sequence (P62813 28-455): as the sequence (P62813 28-455) above
T3 sequence (P63138 25-474 limits assumed): as the sequence (P63138 25-474 limits assumed) above
T3 sequence (P18506 17-449 limits assumed): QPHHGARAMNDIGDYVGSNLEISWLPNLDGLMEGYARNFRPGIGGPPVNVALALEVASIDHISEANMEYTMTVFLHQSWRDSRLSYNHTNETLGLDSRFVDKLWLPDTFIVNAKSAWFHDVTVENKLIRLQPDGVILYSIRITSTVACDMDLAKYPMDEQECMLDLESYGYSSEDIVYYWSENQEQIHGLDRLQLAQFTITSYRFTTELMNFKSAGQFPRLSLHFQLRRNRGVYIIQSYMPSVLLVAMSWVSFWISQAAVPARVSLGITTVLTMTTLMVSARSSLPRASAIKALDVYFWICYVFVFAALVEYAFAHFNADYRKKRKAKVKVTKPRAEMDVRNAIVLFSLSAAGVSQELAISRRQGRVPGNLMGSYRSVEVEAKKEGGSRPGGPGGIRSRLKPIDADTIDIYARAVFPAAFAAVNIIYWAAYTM

α2β2γ2S GABAA receptor = target: T4, α2β2γ2S GABAA receptor (Rattus norvegicus, UniProt P18508+P23576+P63138); assay: as above; type: cell-based; conditions: 30 μM flupirtine, normalized to 30 μM GABA in solvent, n.s. vs solvent
T4 construct: expressed in transfected cells; host or cells: tsA 201 cells
T4 sequence (P23576 29-451): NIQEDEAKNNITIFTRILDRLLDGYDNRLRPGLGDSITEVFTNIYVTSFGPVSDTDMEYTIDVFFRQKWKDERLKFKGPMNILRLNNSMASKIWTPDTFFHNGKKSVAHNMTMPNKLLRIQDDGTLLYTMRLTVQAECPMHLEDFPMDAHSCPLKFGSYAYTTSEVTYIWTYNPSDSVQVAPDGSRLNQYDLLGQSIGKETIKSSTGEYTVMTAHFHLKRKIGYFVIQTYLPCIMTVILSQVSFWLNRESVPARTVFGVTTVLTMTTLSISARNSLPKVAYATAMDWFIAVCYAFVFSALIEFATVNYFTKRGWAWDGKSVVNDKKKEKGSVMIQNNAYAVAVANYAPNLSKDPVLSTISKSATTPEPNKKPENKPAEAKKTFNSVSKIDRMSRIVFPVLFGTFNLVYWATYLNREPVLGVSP
T4 sequence (P63138 25-474 limits assumed): as the sequence (P63138 25-474 limits assumed) above
T4 sequence (P18508 39-466): as the sequence (P18508 39-466) above

α3β3γ2S GABAA receptor = target: T5, α3β3γ2S GABAA receptor (Rattus norvegicus, UniProt P18508+P20236+P63079); assay: as above; type: cell-based; conditions: 30 μM flupirtine, normalized to 30 μM GABA in solvent, n.s. vs solvent
T5 construct: expressed in transfected cells; host or cells: tsA 201 cells
T5 sequence (P20236 29-493): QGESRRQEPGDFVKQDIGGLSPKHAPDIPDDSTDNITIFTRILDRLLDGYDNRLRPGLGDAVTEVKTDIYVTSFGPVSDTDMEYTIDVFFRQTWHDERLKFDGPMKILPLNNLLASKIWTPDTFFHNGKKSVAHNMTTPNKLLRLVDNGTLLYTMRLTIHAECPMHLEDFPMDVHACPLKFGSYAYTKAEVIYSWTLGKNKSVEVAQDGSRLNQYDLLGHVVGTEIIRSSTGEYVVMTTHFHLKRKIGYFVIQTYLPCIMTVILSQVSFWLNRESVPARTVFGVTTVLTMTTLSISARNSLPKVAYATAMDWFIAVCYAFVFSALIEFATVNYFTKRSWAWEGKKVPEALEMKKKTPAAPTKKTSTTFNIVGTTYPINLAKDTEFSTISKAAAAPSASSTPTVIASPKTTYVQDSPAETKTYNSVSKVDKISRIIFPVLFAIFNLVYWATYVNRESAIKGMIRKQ
T5 sequence (P63079 26-473): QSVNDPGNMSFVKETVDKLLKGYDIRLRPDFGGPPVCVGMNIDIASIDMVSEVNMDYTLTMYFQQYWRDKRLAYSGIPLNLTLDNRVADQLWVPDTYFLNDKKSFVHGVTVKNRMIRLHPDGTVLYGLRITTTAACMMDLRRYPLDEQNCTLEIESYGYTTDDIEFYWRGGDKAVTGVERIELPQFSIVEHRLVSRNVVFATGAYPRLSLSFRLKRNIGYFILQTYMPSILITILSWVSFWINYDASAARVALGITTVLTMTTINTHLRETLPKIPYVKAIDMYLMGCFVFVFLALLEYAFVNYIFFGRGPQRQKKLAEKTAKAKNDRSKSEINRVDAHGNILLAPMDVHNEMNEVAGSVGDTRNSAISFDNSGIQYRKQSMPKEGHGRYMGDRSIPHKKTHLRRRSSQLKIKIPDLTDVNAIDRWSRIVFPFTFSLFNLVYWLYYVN
T5 sequence (P18508 39-466): as the sequence (P18508 39-466) above

α4β3 GABAA receptor = target: T6, α4β3 GABAA receptor (Rattus norvegicus, UniProt P28471+P63079); assay: as above; type: cell-based; conditions: 30 μM flupirtine, normalized to 30 μM GABA in solvent
T6 construct: expressed in transfected cells; host or cells: tsA 201 cells
T6 sequence (P28471 36-552): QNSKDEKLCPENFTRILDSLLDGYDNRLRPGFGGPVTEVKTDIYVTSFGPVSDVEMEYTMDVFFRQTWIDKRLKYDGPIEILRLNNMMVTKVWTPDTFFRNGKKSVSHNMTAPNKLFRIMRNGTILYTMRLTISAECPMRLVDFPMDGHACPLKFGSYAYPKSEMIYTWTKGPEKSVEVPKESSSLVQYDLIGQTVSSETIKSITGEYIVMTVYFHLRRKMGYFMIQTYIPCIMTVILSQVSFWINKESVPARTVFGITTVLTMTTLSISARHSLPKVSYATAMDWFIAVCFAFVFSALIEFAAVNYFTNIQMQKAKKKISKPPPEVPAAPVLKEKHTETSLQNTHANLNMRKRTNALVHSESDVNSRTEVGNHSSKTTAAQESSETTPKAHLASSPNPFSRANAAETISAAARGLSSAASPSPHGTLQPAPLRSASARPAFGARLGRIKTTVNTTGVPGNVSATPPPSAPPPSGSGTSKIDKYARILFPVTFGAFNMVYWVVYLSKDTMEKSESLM
T6 sequence (P63079 26-473): as the sequence (P63079 26-473) above

α4β3γ2S GABAA receptor = target: T7, α4β3γ2S GABAA receptor (Rattus norvegicus, UniProt P18508+P28471+P63079); assay: as above; type: cell-based; conditions: 30 μM flupirtine, normalized to 30 μM GABA in solvent
T7 construct: expressed in transfected cells; host or cells: tsA 201 cells
T7 sequence (P28471 36-552): as the sequence (P28471 36-552) above
T7 sequence (P63079 26-473): as the sequence (P63079 26-473) above
T7 sequence (P18508 39-466): as the sequence (P18508 39-466) above

α4β3δ GABAA receptor = target: T8, α4β3δ GABAA receptor (Rattus norvegicus, UniProt P18506+P28471+P63079); assay: as above; type: cell-based
T8 construct: expressed in transfected cells; host or cells: tsA 201 cells
T8 sequence (P28471 36-552): as the sequence (P28471 36-552) above
T8 sequence (P63079 26-473): as the sequence (P63079 26-473) above
T8 sequence (P18506 17-449 limits assumed): as the sequence (P18506 17-449 limits assumed) above

α5β3γ2S GABAA receptor = target: T9, α5β3γ2S GABAA receptor (Rattus norvegicus, UniProt P18508+P19969+P63079); assay: as above; type: cell-based; conditions: 30 μM flupirtine, normalized to 30 μM GABA in solvent
T9 construct: expressed in transfected cells; host or cells: tsA 201 cells
T9 sequence (P19969 32-464 limits assumed): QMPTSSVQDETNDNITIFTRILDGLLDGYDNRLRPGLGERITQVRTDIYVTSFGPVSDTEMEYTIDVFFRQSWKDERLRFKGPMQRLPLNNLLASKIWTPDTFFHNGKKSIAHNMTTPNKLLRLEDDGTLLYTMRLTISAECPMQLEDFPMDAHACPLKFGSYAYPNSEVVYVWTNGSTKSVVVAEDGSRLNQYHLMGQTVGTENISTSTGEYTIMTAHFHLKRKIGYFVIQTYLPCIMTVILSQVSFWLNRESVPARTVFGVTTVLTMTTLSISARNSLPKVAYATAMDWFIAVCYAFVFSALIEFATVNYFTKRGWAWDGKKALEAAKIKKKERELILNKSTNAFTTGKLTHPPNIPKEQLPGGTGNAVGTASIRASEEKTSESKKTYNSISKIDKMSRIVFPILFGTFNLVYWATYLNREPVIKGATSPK
T9 sequence (P63079 26-473): as the sequence (P63079 26-473) above
T9 sequence (P18508 39-466): as the sequence (P18508 39-466) above

[3] = target: T10, heteromeric Kv7.2/Kv7.3 channels (UniProt O43526+O88944); assay: Currents through recombinant Kv7 channels in tsA 201 cells, ramp hyperpolarizations, amplitude at −30 mV; type: cell-based
T10 construct: expressed in transfected cells; host or cells: tsA 201 cells

[4] = test system: aIPSCs in hippocampal neurons; assay: Autaptic inhibitory postsynaptic currents (aIPSCs) in hippocampal microcultures; type: cell-based, rat
[5] = test system: mIPSCs in hippocampal neurons; type: cell-based, rat
[6] = test system: tonically active GABAA receptors in hippocampal neurons; type: cell-based, rat
[7] = target: T11, δ-containing GABAA receptors in hippocampal neurons (Rattus norvegicus, UniProt P18506); assay: THIP-evoked currents in cultured hippocampal neurons; type: cell-based; conditions: 30 μM flupirtine; 3 μM THIP; greater extent than 3 μM GABA in 5 mM penicillin
T11 construct: endogenous in cells; host or cells: primary cultured rat hippocampal neurons
T11 sequence (P18506 17-449 limits assumed): as the sequence (P18506 17-449 limits assumed) above

[8] = test system: Kv7 channels in hippocampal neurons; assay: K+ currents in hippocampal neurons, ramp hyperpolarizations, amplitude at −30 mV; type: cell-based, rat
[9] = target: T12, δ-containing GABAA receptors in DH neurons (Rattus norvegicus, UniProt P18506); assay: THIP-evoked currents in dorsal horn neurons; type: cell-based; conditions: 3 μM THIP; concentration-dependent; more pronounced than on GABA currents; at 10 μM larger than on K+ currents
T12 construct: endogenous in cells; host or cells: primary cultured rat dorsal horn neurons
T12 sequence (P18506 17-449 limits assumed): as above

[10] = test system: GABAA receptors in DH neurons; assay: GABA-evoked currents in dorsal horn neurons; type: cell-based, rat; conditions: 3 μM GABA; concentration-dependent
[11] = test system: Kv7 channels in DH neurons; assay: K+ currents in dorsal horn neurons, ramp hyperpolarizations, amplitude at −30 mV; type: cell-based, rat; conditions: 3 and 10 μM flupirtine; quantified at −30 mV
[12] = Plasma pharmacokinetics and therapeutic plasma levels of flupirtine (literature); type: in vivo; conditions: after single doses
[13] = test system: untransfected tsA 201 cells; assay: Control recordings in untransfected tsA 201 cells; type: cell-based; conditions: control experiments
Procedure: Primary cultures of rat hippocampal and DH neurons were prepared as described previously (Klinger et al., [2012]). Micro-island cultures were obtained as detailed elsewhere (Dorostkar and Boehm, [2007]). For heterologous expression of GABAA receptors and Kv7 channels, tsA 201 cells (a subclone of HEK 293 cells) were cultured in DMEM containing 1 g · L^−1 glucose and 10% heat-inactivated fetal calf serum. Cells were transfected using ExGen 500 or TurboFect according to the manufacturer's recommendations, with a transfection ratio of 1:1 for αβ receptors, 1:1:8 for αβγ or αβδ receptors and 1:1 for heteromeric Kv7.2/Kv7.3 channels. The day after transfection, cells were seeded at a low density and used for patch-clamp recordings 24–48 h after transfection.

[14] = test system: αβ and γ-containing recombinant GABAA receptors; type: cell-based, rat
[15] = cited from earlier work
[16] = set-up: method as in Friedel and Fitton, 1993; conditions: ref Friedel and Fitton, 1993; cited from earlier work
Kv7 channels = test system: Kv7 channels; set-up: method as in Klinger et al., 2012; conditions: ref Klinger et al., 2012; read-out: EC50 for the facilitation of Kv7 channels; cited from earlier work

## N#Cc1cc2nc(O)c(O)nc2cc1[N+](=O)[O-] [CNQX, cyano-2,3-dihydroxy-7-nitroquinoxaline]
[1]; 10 μM CNQX
  Effect on aEPSCs: blocked

## CCOC(=O)Nc1ccc(NCc2ccc(F)cc2)nc1N [Flupirtine]
[2]
  Maximal increase in GABA-evoked current amplitudes (factor): ~9 and > 8
[2]; 3 μM GABA in solvent, no penicillin
  Maximal increase in GABA-evoked current amplitudes (factor): 2.5 and < 3
[2]; 3 μM flupirtine, presence of penicillin
  Effect of flupirtine on GABA-evoked currents: enhanced
[2]; 10 μM flupirtine, absence of penicillin
  Effect of flupirtine on GABA-evoked currents: increased
[2]; 10 μM flupirtine, presence of penicillin, more pronounced than on the other currents
  Effect of flupirtine on GABA-evoked currents: increased
[2]; 30 μM flupirtine, normalized to 30 μM GABA in solvent, n.s. vs solvent
  GABA Emax (normalized) in the presence of flupirtine (30 μM): 1.25 ± 0.04 n.s.
[2]; 5 mM penicillin plus 30 μM flupirtine, normalized to 30 μM GABA in penicillin plus solvent
  GABA Emax (normalized) in the presence of flupirtine (30 μM): 1.46 ± 0.03
α1β2 GABAA receptor
  GABA Emax (normalized) in the presence of flupirtine (30 μM): 0.71 ± 0.02
α1β2γ2S GABAA receptor; 10 μM flupirtine
  Effect of flupirtine on GABA-evoked currents: augmented
α1β2γ2S GABAA receptor; 30 μM flupirtine, normalized to 30 μM GABA in solvent
  GABA Emax (normalized) in the presence of flupirtine (30 μM): 0.85 ± 0.02
α1β2δ GABAA receptor
  EC50: 108 µM
  Effect of flupirtine on GABA-evoked currents: potentiated; also recorded: augmented
  Maximum of flupirtine effect on GABA-evoked currents (normalized to solvent): 28.8
α1β2δ GABAA receptor; α1β2δ, 30 μM flupirtine, normalized to 30 μM GABA in solvent
  GABA Emax (normalized) in the presence of flupirtine (30 μM): 2.27 ± 0.06
α2β2γ2S GABAA receptor
  GABA Emax (normalized) in the presence of flupirtine (30 μM): 2.54 ± 0.14 n.s.
α3β3γ2S GABAA receptor
  GABA Emax (normalized) in the presence of flupirtine (30 μM): 1.93 ± 0.10 n.s.
α4β3 GABAA receptor
  GABA Emax (normalized) in the presence of flupirtine (30 μM): 0.78 ± 0.02
α4β3γ2S GABAA receptor
  GABA Emax (normalized) in the presence of flupirtine (30 μM): 1.63 ± 0.05
α4β3δ GABAA receptor
  EC50: 7 µM
α4β3δ GABAA receptor; α4β3δ, 1 μM GABA, fixed to the highest value determined
  Maximum of flupirtine effect on GABA-evoked currents (normalized to solvent): 1.5
α4β3δ GABAA receptor; α4β3δ, 3 μM flupirtine, 1 μM GABA
  Effect of flupirtine on GABA-evoked currents: potentiated
α4β3δ GABAA receptor; α4β3δ, 10 μM flupirtine
  Effect of flupirtine on GABA-evoked currents: augmented
α4β3δ GABAA receptor; α4β3δ, 30 μM flupirtine, normalized to 30 μM GABA in solvent
  GABA Emax (normalized) in the presence of flupirtine (30 μM): 1.55 ± 0.06
α5β3γ2S GABAA receptor
  GABA Emax (normalized) in the presence of flupirtine (30 μM): 0.94 ± 0.06
[3]; 3 μM flupirtine
  Effect of flupirtine on currents through Kv7 channels at −30 mV: enhanced
[3]; 10 μM flupirtine
  Effect of flupirtine on currents through Kv7 channels at −30 mV: augmented
[4]
  Effect on aIPSC peak amplitudes: unaltered
[4]; Rattus norvegicus, Hippocampal neuron, n = 6, read-out: EC50 for the effect on aIPSC charge transfer
  EC50: 12 µM
[1]; aIPSCs (former) vs aEPSCs (latter)
  Effect on aEPSCs: only the former ones were affected
[5]; 30 μM flupirtine, 0.5 μM tetrodotoxin plus 10 μM CNQX
  Effect on all characteristics of mIPSCs (amplitudes, rise times, half widths): remained unaltered
[6]; 30 μM flupirtine, −70 mV
  Effect on holding currents: shifted towards more negative values
[6]; 3 to 30 μM flupirtine, concentration-dependent
  Effect on amplitudes of bicuculline-sensitive tonic currents: enhanced
[7]
  Effect of flupirtine on THIP-induced currents: augmented
[8]; 3 μM flupirtine
  Effect of flupirtine on K+ currents at −30 mV: enhanced
[8]; 10 μM flupirtine
  Effect of flupirtine on K+ currents at −30 mV: increased
[9]
  Effect of flupirtine on THIP-induced currents: enhanced
[10]
  Effect of flupirtine on GABA-induced currents: enhanced
[11]
  Effect of flupirtine on K+ currents: enhanced
[12]
  Free plasma concentrations: 1000 to 2000 nM
[13]
  Effect on currents in untransfected cells: failed to enhance any type of current
[14]
  Reduction of maximal current amplitudes: 18 to 35%
[15]; four regularly spaced oral doses a day, ref Friedel and Fitton, 1993
  Accumulation: more than twofold
[15]; ref Friedel and Fitton, 1993
  Plasma half-life: about 10 h
[15]; single dose of 200 mg, ref Hummel et al., 1991
  Plasma concentrations: around 5 μM
[16]
  Bound by plasma proteins: 80%
Kv7 channels
  EC50: 5 µM

## NCCCC(=O)O [GABA]
[2]; 5 mM penicillin present, normalized to 30 μM GABA in penicillin plus solvent
  GABA Emax (normalized), solvent: 1.02 ± 0.02
[2]; solvent, normalized to current by 30 μM GABA in solvent
  GABA Emax (normalized), solvent: 1.33 ± 0.03

## Cc1ncc2n1-c1ccc(Cl)cc1C(c1ccccc1F)=NC2 [midazolam]
[5]; 3 μM midazolam
  Effect on half widths of mIPSCs: increased
  Effect on mIPSC amplitudes or rise times: without altering
[6]; 3 μM midazolam
  Effect on holding currents: slight shift of holding currents in an inward direction

## penicillin
[2]; 5 mM penicillin
  Effect on maximal amplitudes of GABA-evoked currents: significantly reduced
[5]; 5 mM penicillin
  Effect on mIPSCs: abolished
[6]; 5 mM penicillin
  Effect on holding currents: did not affect
